Results from patent publication US20220186240A1, “FLAVONE 7-O-METHYLTRANSFERASE GENE AND USE FOR SAME” (Suntory Holdings Limited, priority 2019, published 2022).

Key:
[1] = tested on: DN134067 (CcFn-7OMT, flavone 7-O-methyltransferase); experiment: Enzyme activity measurement with crude protein solution extract from E. coli expressing DN134067, HPLC of reaction solution; assay type: biochemical, oboushibana (Commelina communis var. hortensis); conditions: for Enzyme reaction synthesis product / peak detected in the enzyme reaction solution: compound as substrate; for Enzyme reaction synthesis product: 30° C., SAM, ND = no product peak; for peak detected in the enzyme reaction solution: HPLC
Description: With DN134067 as a candidate protein having activity of transferring a methyl group to the hydroxyl group at position 7 of flavone C-glycoside, and using pET15b (Novagen), an E. coli expression vector containing the full-length DN134067 (pET15b-DN134067) was constructed according to the manufacturer's recommended protocol.
Plasmid pET15b-DN134067 was introduced into E. coli BL21 using One Shot BL21(DE3) (Invitrogen), according to the manufacturer's recommended protocol, to obtain E. coli transformants. The E. coli were cultured using an Overnight Express Autoinduction System 1 (Novagen), according to the manufacturer's recommended protocol. The E. coli transformants were cultured at 37° C. (approximately 4 hours) with 2 ml of prepared culture solution, to an OD600 value of 0.5. The E. coli solution was added as a preculturing solution to 50 ml of culture solution, and main culturing was carried out for two nights at 16° C.
The E. coli solution cultured for two nights was centrifuged (3000 rpm, 4° C., 15 minutes), and the collected cells were suspended in sonic buffer (composition: 40 mM KPB (pH7.5), 1 mM dithiothreitol, 50 μM amidinophenylmethanesulfonyl fluoride hydrochloride, […], 2 mM MgCl2, 1 μM S-adenosylmethionine (SAM)). A 5 ml portion of sonic buffer was added for each 1 g of E. coli. The suspended E. coli cells were crushed by ultrasonic treatment and then centrifuged (15,000 rpm, 4° C., 10 minutes), and the supernatant was recovered. The supernatant was used as a crude protein solution extract from E. coli expressing DN134067. An Avanti HP-26XP (rotor: JA-2) (Beckman Coulter) was used for the centrifugation.
After mixing 8 μl of 1 mM isovitexin (dissolved in 50% aqueous acetonitrile containing 0.1% TFA), 20 μl of 10 mM SAM, 20 μl of 10 mM MgCl2 and 10 μl of 1 M KPB (pH 7.5) and adjusting to 58 μl with water, the mixture was kept at 30° C. for 10 minutes, and then 2 μl of the crude protein solution extract from DN134067-expressing E. coli was added and enzyme reaction was carried out (30 minutes at 30° C.). Next, 100 μl of stop buffer (aqueous 90% acetonitrile solution containing 0.1% TFA) was added to stop the enzyme reaction, and the enzyme reaction solution was analyzed by high-performance liquid chromatography (Prominence by Shimadzu Corp.). Detection was at 330 nm using a Shimadzu PDA SPD-M20A as the detector. The column used was a Shim-Pack ODS 150 mm*4.6 mm (Shimadzu Corp.). Elution was performed using solution A (0.1% TFA aqueous solution) and solution B (aqueous 90% acetonitrile solution containing 0.1% TFA). The elution was with a 20-minute linear concentration gradient from a 9:1 mixture to a 8:2 mixture, a 15-minute linear concentration gradient from a 8:2 mixture to a 2:8 mixture and a 5-minute linear concentration gradient from a 2:8 mixture to a 0:10 mixture, followed by elution with a 0:10 mixture for 1 minute. The flow rate was 0.6 ml/min. As a control, the same experiment was carried out using a crude protein solution extract from E. coli in which pET15b vector without the insert had been introduced.
When enzyme reaction was conducted using an anthocyanin (delphinidin 3-glycoside, petunidin 3-glycoside or delphinidin 3,5-diglycoside) as the substrate, the enzyme reaction conditions were 30° C., 15 minutes, and an aqueous 90% acetonitrile solution containing 0.1% TFA and 0.24 N hydrochloric acid was used as the stop buffer. A Shimadzu PDA SPD-M20A detector was used for detection at 520 nm during analysis of the enzyme reaction solution by high-performance liquid chromatography (Prominence (Shimadzu Corp.)). The column used was a Shodex RSpak DE-413 L (Shodex). Elution was performed using solution A (0.1% TFA aqueous solution) and solution B (aqueous 90% acetonitrile solution containing 0.1% TFA). Elution was performed with a 15-minute linear concentration gradient from an 8:2 mixture to a 0:10 mixture, and subsequent elution for 5 minutes with a 0:10 mixture. […]

[2] = Simulation of flavone C-glycoside (isoorientin, swertisin) copigment effect with malvin, absorption spectra; assay type: physicochemical; conditions: for Absorption maximum of malvin solution with addition of flavone C-glycoside (λmax): flavone C-glycoside at 10-equivalent molar concentration, pH 5.0, malvin 0.5 mM
Method: An anthocyanin (malvin) and flavone C-glycoside were prepared to simulate the copigment effect of the flavone C-glycoside on malvin. The malvin (malvidin 3,5-diglycoside) and flavone C-glycosides (isoorientin, swertisin) used in this experiment were purchased from Nacalai Tesque, Inc.
Each flavone C-glycoside (isoorientin or swertisin) was added to the malvin at 10-equivalent molar concentration in a buffering solution at pH 5.0, and the absorption spectra were measured. The malvin concentration was 0.5 mM.
Addition of the flavone C-glycoside increased the absorbance of the malvin solution, shifting the absorption maximum (λmax) toward the long wavelength end. The absorption maximum was shifted further toward the long wavelength end with addition of swertisin than with isoorientin.

[3] = Simulation of flavone C-glycoside (isovitexin) copigment effect with anthocyanin, absorption spectra; assay type: physicochemical; conditions: for Absorption maximum of anthocyanin solution with addition of flavone C-glycoside (λmax): pH 4.5, anthocyanin 0.5 mM
Method: An anthocyanin and flavone C-glycoside were prepared to simulate the copigment effect of flavone C-glycoside on anthocyanin. The malvin (malvidin 3,5-diglycoside) and isovitexin (apigenin 6-C-glycoside) used for the experiment were purchased from Funakoshi Corp.
The flavone C-glycoside (isovitexin) was added to the anthocyanin (malvin) at 0, 2 and 4-equivalent molar concentrations in a buffering solution at pH 4.5, and the absorption spectra were measured. The anthocyanin concentration was 0.5 mM.
Addition of the flavone C-glycoside increased the absorbance of the anthocyanin solution, shifting the absorption maximum (λmax) toward the long wavelength end with increasing addition of flavone C-glycoside.

Molecule: O=c1cc(-c2ccc(O)c(O)c2)oc2cc(O)c([C@@H]3O[C@H](CO)[C@@H](O)[C@H](O)[C@H]3O)c(O)c12 [Isoorientin, luteolin 6-C-glycoside]
- Enzyme reaction synthesis product [1]: Swertiajaponin
- peak detected in the enzyme reaction solution [1]: a peak was detected for swertiajaponin
- Absorption maximum of malvin solution with addition of flavone C-glycoside (λmax) [2]: 575 nm

Molecule: O=c1cc(-c2ccc(O)cc2)oc2cc(O)cc(O)c12 [Apigenin]
- peak detected in the enzyme reaction solution [1]: no peak was detected in the enzyme reaction solution other than for the substrate

Molecule: O=c1cc(-c2ccc(O)cc2)oc2cc(O)c([C@@H]3O[C@H](CO)[C@@H](O)[C@H](O)[C@H]3O)c(O)c12 [Isovitexin, apigenin 6-C-glycoside]
- Enzyme reaction synthesis product [1]: Swertisin
- peak detected in the enzyme reaction solution [1]: a peak for swertisin
- copigment effect with malvin ([3]; pH 4.5, malvin 0.5 mM): copigment effect of isovitexin is exhibited with malvin

Molecule: COc1cc(-c2[o+]c3cc(O)cc(O[C@@H]4O[C@H](CO)[C@@H](O)[C@H](O)[C@H]4O)c3cc2O[C@@H]2O[C@H](CO)[C@@H](O)[C@H](O)[C@H]2O)cc(OC)c1O [Malvin, malvidin 3,5-diglycoside]
- Absorption maximum of malvin solution (λmax) ([2]; malvin alone, pH 5.0, 0.5 mM): 529 nm
- Absorption maximum of anthocyanin solution with addition of flavone C-glycoside (λmax) ([3]; 0 equivalent isovitexin): 531.8 nm
- Absorption maximum of anthocyanin solution with addition of flavone C-glycoside (λmax) ([3]; 2 equivalents isovitexin): 566.4 nm
- Absorption maximum of anthocyanin solution with addition of flavone C-glycoside (λmax) ([3]; 4 equivalents isovitexin): 573.0 nm

Molecule: COc1cc2oc(-c3ccc(O)cc3)cc(=O)c2c(O)c1[C@@H]1O[C@H](CO)[C@@H](O)[C@H](O)[C@H]1O [Swertisin, apigenin 7-methyl-6-C-glycoside]
- copigment effect with malvin ([2]; compared with isoorientin, 10 equivalents, pH 5.0): higher copigment effect with malvin
- Absorption maximum of malvin solution with addition of flavone C-glycoside (λmax) [2]: 579 nm

Molecule: Delphinidin 3,5-diglycoside
- peak detected in the enzyme reaction solution [1]: no peak was detected in the enzyme reaction solution other than for the substrate

Molecule: O=c1cc(-c2ccc(O)c(O)c2)oc2cc(O)cc(O)c12 [Luteolin]
- peak detected in the enzyme reaction solution [1]: no peak was detected in the enzyme reaction solution other than for the substrate

Molecule: Apigenin 4′-glycoside
- peak detected in the enzyme reaction solution [1]: no peak was detected in the enzyme reaction solution other than for the substrate

Molecule: Delphinidin 3-glycoside
- peak detected in the enzyme reaction solution [1]: no peak was detected in the enzyme reaction solution other than for the substrate

Molecule: isovitexin 4′-glycoside [Saponarin]
- peak detected in the enzyme reaction solution [1]: no peak was detected in the enzyme reaction solution other than for the substrate

Molecule: Luteolin 4′-glycoside
- peak detected in the enzyme reaction solution [1]: no peak was detected in the enzyme reaction solution other than for the substrate

Molecule: Petunidin 3-glycoside
- peak detected in the enzyme reaction solution [1]: no peak was detected in the enzyme reaction solution other than for the substrate

B1: DN134067: oboushibana-derived flavone 7-O-methyltransferase (SEQ ID NO: 34/35), expressed in E. coli (protein)
chain: MEAQEDNAYMQALELQTGIDMNMTLRAAIELGILETIVGAGEGAKLAAGEISGHLPTANPEAPNMVDRMLRLLAAHNIVTCVVEGGVDGRPECKYGAAPVSKYFTGEGEMSLARKVLLATDMVTFQSWLHLKDSVINGGNAFHTAFNMSLFDKNKVDSRFNNVFNTSMKSVSLFAINKFINTYDGFSDIQVLVDVGGGIGTALYAITSKFPHIKGINFDLPQVISTAQTSYPEMEHVSGDMFASVPKGDAILLKHVLHNWEDESCLKILKTCWNSLPYKGKVIIVESVLPKAPGVSSASKYFTCLDVIMMAHFGAKLRTIEEFKELCNNAGFSSFNATYFHTYHCIMEFTK
modifications: Commelina communis var. hortensis
- methyl group-transfer activity ([1]; substrate comparison): most powerful methyl group-transfer activity for isovitexin
